Source: US7148232B2, “Oxazolo, thiazolo and selenazolo [4,5-c]-quinolin-4-amines and analogs thereof” (3M Innovative Properties Company, priority 1998, dated 2006)
Structures can show the parent of a compound that is named as a salt.

Assays:
interferon (α) [1] = assay: Interferon (α) induction in human cells (in vitro human blood cell system, interferon by bioassay); assay type: cell-based; details: human PBM's, 48 hours
Protocol: An in vitro human blood cell system was used to assess interferon induction by compounds of the invention. Activity is based on the measurement of interferon secreted into culture media. Interferon is measured by bioassay.
Whole blood is collected by venipuncture into EDTA vacutainer tubes. Peripheral blood mononuclear cells (PBM's) are separated from whole blood by using either LeucoPREP™ Brand Cell Separation Tubes (available from Becton Dickinson) or Ficoll-Paque® solution (available from Pharmacia LKB Biotechnology Inc, Piscataway, N.J.). […] 200 μL portions of PBM suspension are added to 96 well (flat bottom) sterile tissue culture plates (Becton Dickinson Labware, Lincoln Park, N.J.).
The compounds are solubilized in ethanol, dimethyl sulfoxide or tissue culture water then diluted with tissue culture water, 0.01N sodium hydroxide or 0.01N hydrochloric acid (The choice of solvent will depend on the chemical characteristics of the compound being tested.). Ethanol or DMSO concentration should not exceed a final concentration of 1% for addition to the culture wells. Compounds are initially tested in a concentration range of from about 0.1 μg/mL to about 5 μg/mL. Compounds which show induction at a concentration of 0.5 μg/mL are then tested in a wider concentration range.
The solution of test compound is added in a volume (less than or equal to 50 μL) to the wells containing 200 μL of diluted whole blood or of PBM's in media. Solvent and/or media is added to control wells (wells with no test compound) and as needed to adjust the final volume of each well to 250 μL. The plates are covered with plastic lids, vortexed gently and then incubated for 48 hours at 37° C. with a 5% carbon dioxide atmosphere.
Following incubation, the plates are covered with parafilm and then centrifuged at 1000 rpm for 10 to 15 minutes at 4° C. in a Damon IEC Model CRU-5000 centrifuge. Media (about 200 μL) is removed from 4 to 8 wells and pooled into 2 mL sterile freezing vials. Samples are maintained at −70° C. until analysis.
Interferon is determined by bioassay using A549 human lung carcinoma cells challenged with encephalomyocarditis. The details of the bioassay method have been described by G. L. Brennan and L. H. Kronenberg in “Automated Bioassay of Interferons in Micro-test Plates”, Biotechniques, June/Jul. […] The incubated cells are infected with an inoculum of encephalomyocarditis virus. The infected cells are incubated for an additional period at 37° C. before quantifying for viral cytopathic effect. The viral cytopathic effect is quantified by staining followed by spectrophotometric absorbance measurements. Results are expressed as alpha reference units/mL based on the value obtained for NIH HU IF-L standard.
Compounds of the invention were tested for their ability to induce interferon in human cells using the test method described above.

[2] = system: tumor necrosis factor (α); assay: Cytokine induction in human cells: tumor necrosis factor (α) secreted by PBMCs (ELISA); assay type: cell-based; details: 18 to 24 hours
Protocol: (§1) An in vitro human blood cell system was used to assess cytokine induction by compounds of the invention.
(§2) Whole blood is collected by venipuncture into EDTA vacutainer tubes from healthy human donors. […] The PBMC suspension is added to 48 well flat bottom sterile tissue culture plates (Costar, Cambridge, Mass. or Becton Dickinson Labware, Lincoln Park, N.J.) containing an equal volume of RPMI complete media containing test compound.
(§3) The compounds are solubilized in dimethyl sulfoxide (DMSO). The DMSO concentration should not exceed a final concentration of 1% for addition to the culture wells.
(§4) The solution of test compound is added at 60 μM to the first well containing RPMI complete and serial 3 fold dilutions are made. The PBMC suspension is then added to the wells in an equal volume, bringing the test compound concentrations to the desired range (0.12 to 30 μM). The final concentration of PBMC suspension is 1.5–2×10^6 cells/mL. The plates are covered with sterile plastic lids, mixed gently and then incubated for 18 to 24 hours at 37° C. in a 5% carbon dioxide atmosphere.
(§5) Following incubation the plates are centrifuged for 5–10 minutes at 1000 rpm (˜200×g) at 4° C. The cell culture supernatant is removed with a sterile polypropylene pipet and transferred to sterile polypropylene tubes. Samples are maintained at −30 to −70° C. until analysis. The samples are analyzed for interferon (α) by either ELISA or bioassay and for tumor necrosis factor (α) by ELISA
Tumor necrosis factor (α) (TNF) concentration is determined using ELISA kits available from Genzyme, Cambridge, Mass.; R&D Systems, Minneapolis, Minn.; or Pharmingen, San Diego, Calif. according to the manufacturer's instructions.

interferon (α) [3] = assay: Cytokine induction in human cells: interferon (α) secreted by PBMCs (ELISA or bioassay); assay type: cell-based; details: 18 to 24 hours
Protocol: as §1, §2, §3, §4, §5
Interferon is determined by bioassay using A549 human lung carcinoma cells challenged with encephalomyocarditis. […] Briefly stated the method is as follows: A549 cells are incubated with dilutions of samples or a standard interferon at 37° C. for 24 hours. The incubated cells are then infected with an inoculum of encephalomyocarditis virus. The infected cells are incubated for an additional 24 hours at 37° C. before evaluating for viral cytopathic effect. The viral cytopathic effect is quantified by staining with crystal violet followed by visual scoring of the plates. Results are expressed as alpha reference units/mL based on the value obtained for NIH Human Leukocyte IFN standard.
Interferon (α) concentration is determined by ELISA using a Human Multi-Species kit from PBL Biomedical Laboratories, New Brunswick, N.J. according to the manufacturer's instructions.

CCc1nc2c(N)nc3ccccc3c2s1.Cl
melting point: 268 to 270 °C

Nc1nc2ccccc2c2sc(Cc3ccccc3)nc12 (as salt: hydrochloride) [Example 34, 2-Benzylthiazolo[4,5-c]quinolin-4-amine Hydrochloride]
melting point: 152 to 155 °C

CCCc1nc2c(N)nccc2s1 (as salt: trifluoroacetate) [Example 62, 2-Propylpyrido[3,4-d][1,3]thiazol-4-amine Trifluoroacetate]
melting point: 160 to 162 °C

Cl.Nc1nc2ccccc2c2scnc12.O (hydrate or solvate) [Example 5, Thiazolo[4,5-c]quinolin-4-amine Hydrochloride Hydrate]
melting point: 284 to 285 °C

Cl.Nc1nc2ccccc2c2scnc12.O [Example 5, Thiazolo[4,5-c]quinolin-4-amine Hydrochloride Hydrate]
Interferon (α) Induction in Human Cells (interferon (α) [1]; Dose Concentration 0.01 μg/mL): −
Interferon (α) Induction in Human Cells (interferon (α) [1]; Dose Concentration 0.05 μg/mL): −
Interferon (α) Induction in Human Cells (interferon (α) [1]; Dose Concentration 0.10 μg/mL): −
Interferon (α) Induction in Human Cells (interferon (α) [1]; Dose Concentration 0.50 μg/mL): −
Interferon (α) Induction in Human Cells (interferon (α) [1]; Dose Concentration 1.0 μg/mL): +
Interferon (α) Induction in Human Cells (interferon (α) [1]; Dose Concentration 5.0 μg/mL): +
Interferon (α) Induction in Human Cells (interferon (α) [1]; Dose Concentration 10.0 μg/mL): +
Interferon (α) Induction in Human Cells (interferon (α) [1]; Dose Concentration 25.0 μg/mL): +
Interferon (α) Induction in Human Cells (interferon (α) [1]; Dose Concentration 50.0 μg/mL): +

Nc1nc2ccccc2c2scnc12 [Example 6, Thiazolo[4,5-c]quinolin-4-amine]
melting point: 172.4 °C (dec.)

CCc1nc2c[n+]([O-])c3ccccc3c2s1 [Example 7, 2-Ethylthiazolo[4,5-c]quinoline-5N-oxide]
melting point: 128 °C

CCCc1nc2c[n+]([O-])c3ccccc3c2s1 [Example 11, 2-Propylthiazolo[4,5-c]quinoline-5N-oxide]
melting point: 123 °C

CCCCCc1nc2c[n+]([O-])c3ccccc3c2s1 [Example 15, 2-Pentylthiazolo[4,5-c]quinoline-5N-oxide]
melting point: 142 to 144 °C

CCCCc1nc2c[n+]([O-])c3ccccc3c2s1 [Example 17, 2-Butylthiazolo[4,5-c]quinoline-5N-oxide]
melting point: 133 to 135 °C

CCCCc1nc2c(N)nc3ccccc3c2s1 [Example 18, 2-Butylthiazolo[4,5-c]quinolin-4-amine]
Tumor Necrosis Factor Induction ([2]; Dose Concentration 0.12 μM): +
Tumor Necrosis Factor Induction ([2]; Dose Concentration 0.37 μM): +
Tumor Necrosis Factor Induction ([2]; Dose Concentration 1.11 μM): +
Tumor Necrosis Factor Induction ([2]; Dose Concentration 3.33 μM): +
Tumor Necrosis Factor Induction ([2]; Dose Concentration 10 μM): +
Tumor Necrosis Factor Induction ([2]; Dose Concentration 30 μM): +
Interferon (α) Induction in Human Cells (interferon (α) [1]; Dose Concentration 0.01 μg/mL): −
Interferon (α) Induction in Human Cells (interferon (α) [1]; Dose Concentration 0.05 μg/mL): −
Interferon (α) Induction in Human Cells (interferon (α) [1]; Dose Concentration 0.10 μg/mL): +
Interferon (α) Induction in Human Cells (interferon (α) [1]; Dose Concentration 0.50 μg/mL): +
Interferon (α) Induction in Human Cells (interferon (α) [1]; Dose Concentration 1.0 μg/mL): +
Interferon (α) Induction in Human Cells (interferon (α) [1]; Dose Concentration 5.0 μg/mL): +
Interferon (α) Induction (interferon (α) [3]; Dose Concentration 0.12 μM): −
Interferon (α) Induction (interferon (α) [3]; Dose Concentration 0.37 μM): −
Interferon (α) Induction (interferon (α) [3]; Dose Concentration 1.11 μM): +
Interferon (α) Induction (interferon (α) [3]; Dose Concentration 3.33 μM): +
Interferon (α) Induction (interferon (α) [3]; Dose Concentration 10 μM): +
Interferon (α) Induction (interferon (α) [3]; Dose Concentration 30 μM): +

[O-][n+]1cc2nc(/C=C/c3ccccc3)sc2c2ccccc21 [Example 21, 2-(2-Phenyl-1-ethenyl)thiazolo[4,5-c]quinoline-5N-oxide]
melting point: 268 to 270 °C

[O-][n+]1cc2nc(CCc3ccccc3)sc2c2ccccc21 [Example 23, 2-(2-Phenyl-1-ethyl)thiazolo[4,5-c]quinoline-5N-oxide]
melting point: 165 to 169 °C

CC(C)(O)Cc1nc2c[n+]([O-])c3ccccc3c2s1 [Example 25, 2-Methyl-1-(thiazolo[4,5-c]quinolin-2-yl)-2-propanol-5N-oxide]
melting point: 187 to 189 °C

CCOCc1nc2c[n+]([O-])c3ccccc3c2s1 [Example 27, 2-(Ethoxymethyl)thiazolo[4,5-c]quinoline-5N-oxide]
melting point: 138 to 140 °C

[O-][n+]1cc2nc(Cc3ccccc3)sc2c2ccccc21 [Example 33, 2-Benzylthiazolo[4,5-c]quinoline-5N-oxide]
melting point: 185 to 186 °C

Nc1nc2ccccc2c2sc(Cc3ccccc3)nc12 [Example 34, 2-Benzylthiazolo[4,5-c]quinolin-4-amine Hydrochloride]
Interferon (α) Induction in Human Cells (interferon (α) [1]; Dose Concentration 0.01 μg/mL): −
Interferon (α) Induction in Human Cells (interferon (α) [1]; Dose Concentration 0.05 μg/mL): −
Interferon (α) Induction in Human Cells (interferon (α) [1]; Dose Concentration 0.10 μg/mL): −
Interferon (α) Induction in Human Cells (interferon (α) [1]; Dose Concentration 0.50 μg/mL): −
Interferon (α) Induction in Human Cells (interferon (α) [1]; Dose Concentration 1.0 μg/mL): −
Interferon (α) Induction in Human Cells (interferon (α) [1]; Dose Concentration 5.0 μg/mL): −

CCCc1nc2c[n+]([O-])c3ccc(C)cc3c2s1 [Example 35, 8-Methyl-2-propylthiazolo[4,5-c]quinoline-5N-oxide]
melting point: 143 to 145 °C

CCCCc1nc2c[n+]([O-])c3ccccc3c2o1 [Example 40, 2-Butyloxazolo[4,5-c]quinoline-5N-oxide]
melting point: 120 to 121 °C

CCCCc1nc2c(N)nc3ccccc3c2o1 [Example 41, 2-Butyloxazolo[4,5-c]quinolin-4-amine]
Interferon (α) Induction in Human Cells (interferon (α) [1]; Dose Concentration 0.01 μg/mL): +
Interferon (α) Induction in Human Cells (interferon (α) [1]; Dose Concentration 0.05 μg/mL): +
Interferon (α) Induction in Human Cells (interferon (α) [1]; Dose Concentration 0.10 μg/mL): +
Interferon (α) Induction in Human Cells (interferon (α) [1]; Dose Concentration 0.50 μg/mL): +
Interferon (α) Induction in Human Cells (interferon (α) [1]; Dose Concentration 1.0 μg/mL): +
Interferon (α) Induction in Human Cells (interferon (α) [1]; Dose Concentration 5.0 μg/mL): +

CS(=O)(=O)c1nc2c[n+]([O-])c3ccccc3c2s1 [Example 51, 2-(Methylsulfonyl)thiazolo[4,5-c]quinolin-5N-oxide]
melting point: 245 to 247 °C

[O-][n+]1cc2nc(N3CCOCC3)sc2c2ccccc21 [Example 52, 2-(4-Morpholino)thiazolo[4,5-c]quinoline-5N-oxide]
melting point: 241 to 242 °C

CCCCc1nc2c[n+]([O-])c3cccnc3c2s1 [Example 57, 2-Butylthiazolo[4,5-c][1,5]naphthyridine-5N-oxide]
melting point: 65 to 69 °C

CCCc1nc2c(N)nccc2s1 [Example 62, 2-Propylpyrido[3,4-d][1,3]thiazol-4-amine Trifluoroacetate]
Tumor Necrosis Factor Induction ([2]; Dose Concentration 0.12 μM): −
Tumor Necrosis Factor Induction ([2]; Dose Concentration 0.37 μM): −
Tumor Necrosis Factor Induction ([2]; Dose Concentration 1.11 μM): −
Tumor Necrosis Factor Induction ([2]; Dose Concentration 3.33 μM): −
Tumor Necrosis Factor Induction ([2]; Dose Concentration 10 μM): −
Tumor Necrosis Factor Induction ([2]; Dose Concentration 30 μM): −
Interferon (α) Induction (interferon (α) [3]; Dose Concentration 0.12 μM): −
Interferon (α) Induction (interferon (α) [3]; Dose Concentration 0.37 μM): −
Interferon (α) Induction (interferon (α) [3]; Dose Concentration 1.11 μM): −
Interferon (α) Induction (interferon (α) [3]; Dose Concentration 3.33 μM): −
Interferon (α) Induction (interferon (α) [3]; Dose Concentration 10 μM): −
Interferon (α) Induction (interferon (α) [3]; Dose Concentration 30 μM): −
